Measurements from patent publication US20230331803A1, “CO-AGONISTS OF THE GLP-1 AND AMYLIN RECEPTORS” (priority 2020, published 2023).
pEC50: −log10 of the molar value. Read-outs that look alike come from different tables or passages of the source. Starred links: 1 amine or outer side, 2 acyl side, 3 side chain; linkers in the order of their positions; H or OH if unused. Positions of bridges follow the written chain, without caps; N, C: chain ends. Non-standard residues stand in square brackets, D forms with d. Groups on a side chain read outwards from the residue. *: point of attachment. Butyryl(4-SO2NHCO(CH2)16Tz) = O=C(CCCCCCCCCCCCCCCCc1nnn[nH]1)NS(=O)(=O)CCCC(=O)*; C20 diacid = O=C(O)CCCCCCCCCCCCCCCCCCC(=O)*; C18 diacid = O=C(O)CCCCCCCCCCCCCCCCC(=O)*; C16 diacid = O=C(O)CCCCCCCCCCCCCCC(=O)*; γGlu = O=C(O)[C@H](CCC(=O)[*:2])N[*:1]; Desaminohistidyl = O=C(CCc1c[nH]cn1)*; εLys = N[C@@H](CCCCN[*:1])C(=O)[*:2]; Trx = NC[C@H]1CC[C@H](C(=O)O)CC1; AEEA = NCCOCCOCC(=O)O; Aib = CC(C)(N)C(=O)O

Legend:
[1] = target: T1, human amylin receptor (hAmyR3) (Homo sapiens, UniProt O60896+P30988); assay: Human amylin receptor in vitro potency assay (CRE-luciferase reporter, BHK cells); format: cell-based; conditions: for EC50: Table 4a, BHK hAmyR3/CRE-Luc cells, 3 hours, read-out: Human AmyR3 potency [EC50 (pM)];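 on all read-outs here: BHK cells expressing human calcitonin receptor plus RAMP3 (amylin-3 receptor) with a CRE-luciferase reporter, agonist activity read as luminescence from cAMP-driven transcription, 7-point serial dilutions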
T1 construct: host or cells: BHK cells (Hollex-1 line: human calcitonin receptor (a) + CRE-Luc), further transfected with human RAMP3
T1 sequence (P30988 25-474): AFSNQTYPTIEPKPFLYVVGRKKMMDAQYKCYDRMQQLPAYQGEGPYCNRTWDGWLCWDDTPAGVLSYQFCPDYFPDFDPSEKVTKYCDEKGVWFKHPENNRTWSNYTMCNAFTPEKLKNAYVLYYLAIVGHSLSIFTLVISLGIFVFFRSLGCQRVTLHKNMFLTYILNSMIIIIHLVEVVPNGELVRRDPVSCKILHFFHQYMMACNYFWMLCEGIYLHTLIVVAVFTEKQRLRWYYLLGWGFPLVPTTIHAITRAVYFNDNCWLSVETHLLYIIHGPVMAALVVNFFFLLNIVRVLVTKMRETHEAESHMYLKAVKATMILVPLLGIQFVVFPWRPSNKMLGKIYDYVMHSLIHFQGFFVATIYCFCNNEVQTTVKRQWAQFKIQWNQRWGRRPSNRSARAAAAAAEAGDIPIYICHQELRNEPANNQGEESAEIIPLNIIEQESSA
T1 sequence (O60896 24-148): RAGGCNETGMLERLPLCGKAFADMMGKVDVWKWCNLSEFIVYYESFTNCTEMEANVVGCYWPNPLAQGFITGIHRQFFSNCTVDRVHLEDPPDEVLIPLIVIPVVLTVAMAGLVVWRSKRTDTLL

human GLP-1 receptor = target: T2, human GLP-1 receptor (Homo sapiens, UniProt P43220); assay: Human GLP-1 receptor in vitro potency assay (CRE-luciferase reporter, BHK cells); format: cell-based; conditions: for EC50: Table 4a, BHK cells expressing human GLP-1R, CRE-Luc, 3 hours, read-out: Human GLP-1R potency [EC50 (pM)]
T2 construct: expressed in transfected cells; host or cells: BHK (Baby Hamster Kidney) cells, clone BHK 467-12A KZ-10, stably transfected, with CRE-luciferase reporter
T2 sequence (P43220 24-463): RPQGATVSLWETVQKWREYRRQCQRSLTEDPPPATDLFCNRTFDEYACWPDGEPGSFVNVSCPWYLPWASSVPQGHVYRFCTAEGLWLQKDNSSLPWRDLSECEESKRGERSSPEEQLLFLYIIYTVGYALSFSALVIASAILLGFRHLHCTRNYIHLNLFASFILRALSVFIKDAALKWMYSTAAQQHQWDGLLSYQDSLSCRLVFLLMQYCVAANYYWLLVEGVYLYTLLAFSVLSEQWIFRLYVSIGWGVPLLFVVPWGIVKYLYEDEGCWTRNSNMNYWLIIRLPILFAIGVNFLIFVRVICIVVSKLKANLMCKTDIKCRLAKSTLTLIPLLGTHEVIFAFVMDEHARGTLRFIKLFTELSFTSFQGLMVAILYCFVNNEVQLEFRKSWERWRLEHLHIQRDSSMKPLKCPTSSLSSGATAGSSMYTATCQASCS
Protocol: It is thus possible to measure GLP-1 receptor activity using a CRE-luciferase reporter gene introduced into Baby Hamster Kidney (BHK) cells co-expressing the GLP-1 receptor.
Cells were aliquoted and stored at -180° C. until use.
Plates were sealed and incubated at room temperature with gentle shaking for 30 minutes while protected from light. Luminescence was detected on a luminescence plate reader e.g. a Synergy 2 (BioTek).

Molecule | pEC50 [1] | pEC50 (human GLP-1 receptor) | EC50 [1] [pM] | EC50 (human GLP-1 receptor) [pM] | Ability to agonise the amylin receptor, in words ([1]; Tables 4a-4c) | Ability to agonise the GLP-1 receptor, in words (human GLP-1 receptor; Tables 4a-4c)
CC[C@H](C)[C@H](NC(=O)[C@H](Cc1ccccc1)NC(=O)[C@H](CCC(=O)O)NC(=O)[C@H](CCCCNC(=O)COCCOCCNC(=O)COCCOCCNC(=O)CC[C@H](NC(=O)CCCCCCCCCCCCCCCCC(=O)O)C(=O)O)NC(=O)[C@H](C)NC(=O)[C@H](C)NC(=O)[C@H](CCC(N)=O)NC(=O)CNC(=O)[C@H](CCC(=O)O)NC(=O)[C@H](CC(C)C)NC(=O)[C@H](Cc1ccc(O)cc1)NC(=O)[C@H](CO)NC(=O)[C@H](CO)NC(=O)[C@@H](NC(=O)[C@H](CC(=O)O)NC(=O)[C@H](CO)NC(=O)[C@@H](NC(=O)[C@H](Cc1ccccc1)NC(=O)[C@@H](NC(=O)CNC(=O)[C@H](CCC(=O)O)NC(=O)C(C)(C)NC(=O)[C@@H](N)Cc1c[nH]cn1)[C@@H](C)O)[C@@H](C)O)C(C)C)C(=O)N[C@@H](C)C(=O)N[C@@H](Cc1c[nH]c2ccccc12)C(=O)N[C@@H](CC(C)C)C(=O)N[C@H](C(=O)N[C@@H](CCCNC(=N)N)C(=O)NCC(=O)N[C@@H](CCCNC(=N)N)C(=O)NCC(=O)N[C@@H](CCCCNC(=O)COCCOCCNC(=O)COCCOCCNC(=O)CC[C@H](NC(=O)CCCCCCCCCCCCCCCCC(=O)O)C(=O)O)C(=O)N[C@@H](CCC(N)=O)C(=O)N[C@@H](CCC(=O)O)C(=O)N1CCC[C@H]1C(=O)NCC(=O)N[C@@H](CCC(N)=O)C(=O)N[C@@H](CCC(=O)O)C(=O)N1CCC[C@H]1C(=O)N[C@@H](CCC(=O)O)C(=O)N[C@@H](C)C(=O)N[C@@H](CO)C(=O)N[C@@H](CCC(=O)O)C(=O)N[C@@H](CC(C)C)C(=O)N[C@@H](CO)C(=O)N[C@H](C(=O)N[C@@H](C)C(=O)N[C@@H](C)C(=O)N[C@@H](CC(C)C)C(=O)NCC(=O)N[C@@H](CCCNC(=N)N)C(=O)N[C@@H](CC(C)C)C(=O)N[C@@H](CO)C(=O)N[C@@H](C)C(=O)N[C@@H](CCC(=O)O)C(=O)N[C@@H](CC(C)C)C(=O)N[C@@H](Cc1c[nH]cn1)C(=O)N[C@@H](CCC(=O)O)C(=O)N[C@@H](CC(C)C)C(=O)N[C@@H](C)C(=O)N[C@H](C(=O)N[C@@H](CC(C)C)C(=O)N1CCC[C@H]1C(=O)N[C@@H](CCCNC(=N)N)C(=O)N[C@H](C(=O)N[C@@H](CCC(=O)O)C(=O)N[C@H](C(=O)NCC(=O)N[C@@H](CO)C(=O)NCC(=O)N[C@@H](CO)C(=O)N1CCC[C@H]1C(N)=O)[C@@H](C)O)[C@@H](C)O)[C@@H](C)O)[C@@H](C)O)C(C)C [Compound 0056] | 9.92 | 10.38 | – | – | – | –
H-H[Aib]EGTFTSDVSSYLEEK([AEEA-AEEA-γGlu-C16 diacid])AAREFIAWLVRGRGGGGGEASELSTAALGRLSAELHELK([AEEA-AEEA-γGlu-C16 diacid])TLPRTETGSGSP-NH2 [Compound 0396] | – | – | 32.8 | 4.8 | – | –
CC[C@H](C)[C@H](NC(=O)[C@H](Cc1ccccc1)NC(=O)[C@H](CCC(=O)O)NC(=O)[C@H](CCCNC(=N)N)NC(=O)[C@H](C)NC(=O)[C@H](C)NC(=O)[C@H](CCC(N)=O)NC(=O)[C@H](CCC(=O)O)NC(=O)[C@H](CCC(=O)O)NC(=O)[C@H](CC(C)C)NC(=O)[C@H](Cc1ccc(O)cc1)NC(=O)[C@H](CO)NC(=O)[C@H](CO)NC(=O)[C@H](CCCCNC(=O)COCCOCCNC(=O)COCCOCCNC(=O)CC[C@H](NC(=O)CCCCCCCCCCCCCCCCC(=O)O)C(=O)O)NC(=O)[C@H](CC(=O)O)NC(=O)[C@H](CO)NC(=O)[C@@H](NC(=O)[C@H](Cc1ccccc1)NC(=O)[C@@H](NC(=O)CNC(=O)[C@H](CCC(=O)O)NC(=O)[C@H](Cc1c[nH]c2ccccc12)NC(=O)[C@@H](N)Cc1c[nH]cn1)[C@@H](C)O)[C@@H](C)O)C(=O)N[C@@H](CCC(=O)O)C(=O)N[C@@H](Cc1c[nH]c2ccccc12)C(=O)N[C@@H](CC(C)C)C(=O)N[C@H](C(=O)N[C@@H](CCCNC(=N)N)C(=O)NCC(=O)N[C@@H](CCCNC(=N)N)C(=O)NCC(=O)N[C@@H](CCC(=O)O)C(=O)N[C@@H](C)C(=O)N[C@@H](CO)C(=O)N[C@@H](CCC(=O)O)C(=O)N[C@@H](CC(C)C)C(=O)N[C@@H](CO)C(=O)N[C@H](C(=O)N[C@@H](C)C(=O)N[C@@H](C)C(=O)N[C@@H](CC(C)C)C(=O)NCC(=O)N[C@@H](CCCNC(=N)N)C(=O)N[C@@H](CC(C)C)C(=O)N[C@@H](CO)C(=O)N[C@@H](C)C(=O)N[C@@H](CCC(=O)O)C(=O)N[C@@H](CC(C)C)C(=O)N[C@@H](Cc1c[nH]cn1)C(=O)N[C@@H](CCC(=O)O)C(=O)N[C@@H](CC(C)C)C(=O)N[C@@H](C)C(=O)N[C@H](C(=O)N[C@@H](CC(C)C)C(=O)N1CCC[C@H]1C(=O)N[C@@H](CCCNC(=N)N)C(=O)N[C@H](C(=O)N[C@@H](CCC(=O)O)C(=O)N[C@H](C(=O)NCC(=O)N[C@@H](CO)C(=O)NCC(=O)N[C@@H](CO)C(=O)N1CCC[C@H]1C(N)=O)[C@@H](C)O)[C@@H](C)O)[C@@H](C)O)[C@@H](C)O)C(C)C [Compound 0273] | 10.74 | 10.60 | – | – | – | –
H-H[Aib]EGTFTSDVSSYLEEQAAREFIEWLVRGRK([εLys-AEEA-AEEA-γGlu-Trx-C20 diacid])EASELSTAALGRLSAELHELATLPRTETGSGSP-NH2 [Compound 0438] | – | – | 27.5 | 11.8 | – | –
Desaminohistidyl-[Aib]EGTFTSDVSSYLEEQAAREFIAWLVRGRK([γGlu-C20 diacid])EASELSTAALGRLSAELHELATLPRTETGSGSP-NH2 [Compound 0142] | – | – | 15.4 | 88.2 | – | –
H-H[Aib]EGTFTSDVSSYLEEQAAREFIAWLVRGRK([AEEA-γGlu-C18 diacid])GGGGEASELSTAALGRLSAELHELATLPRTETGSGSP-NH2 [Compound 0660] | – | – | 12.7 | 3.9 | – | –
H-H[Aib]EGTFTSDVSSYLEEQAAREFIAWLVRGRK([AEEA-AEEA-γGlu-C18 diacid])GGGGEKCNTATCATQRLANFLVHSSNNFGPILPPTNVGSNTY-NH2 (disulfide 38-43 (inferred)) [Comparator compound 0671, reference compound] | 9.64 | 11.35 | – | – | impaired potency on the amylin receptor | retained their potencies on the GLP-1 receptor
H-H[Aib]EGTFTSDVSSYLEEQAAREFIAWLVRK([AEEA-AEEA-γGlu-C16 diacid])RGGGGGASELSTAALGRLSK([AEEA-AEEA-γGlu-C16 diacid])ELHELATLPRTETGSGSP-NH2 [Compound 0297] | – | – | 46 | 30.2 | – | –
H-H[Aib]EGTFTSDVSSYLEEQAAREFIAWLVRGRK([εLys-εLys-γGlu-C18 diacid])GGGGEASELSTAALGRLSAELHELATLPRTETGSGSP-NH2 [Compound 0656] | – | – | 13.3 | 4.1 | – | –
H-H[Aib]EGTFTSDVSSYLEK([AEEA-AEEA-γGlu-C16 diacid])QAAREFIAWLVRGRGGGGGASELSTAALGRLSK([AEEA-AEEA-γGlu-C16 diacid])ELHELATLPRTETGSGSP-NH2 [Compound 0294] | – | – | 34.3 | 13.7 | – | –
H[Aib]EGTFTSDVSSYLEEQAARK([AEEA-AEEA-γGlu-C18 diacid])FIAWLVRGK([AEEA-AEEA-γGlu-C18 diacid])GGEASELSTAALGRLSAELHELATLPRTETGSGSP-NH2 [Compound 0127] | – | – | 63.9 | 7.1 | – | –
H-H[Aib]EGTFTSDVSSYLEEQAARK([AEEA-AEEA-γGlu-C20 diacid])FIAWLVRGRGGGGGEASELSTAALGRLSAELHELATLPRTETGSGSP-NH2 [Compound 0562] | – | – | 4.1 | 19.3 | – | –
H-H[Aib]EGTFTSDVSSYLEEQAARK(Butyryl(4-SO2NHCO(CH2)16Tz))FIAWLVRGRGEASELSTAALGRLSAELHELATLPRTETGSGSP-NH2 [Compound 0125] | – | – | 12.2 | 8 | – | –
